Measurements: US7998965B2, “Glutamate aggrecanase inhibitors” (Wyeth LLC, priority 2005, dated 2011)
Converted amounts (≈) assume the structure as drawn. Where two headings read alike, the source gives them in different places. Blank lines part the entries; values can stand above or below the molecule they belong to.

Columns and labels:
[1] = molecular target: T1, purified recombinant human Aggrecanase-1 (rAgg1) (Homo sapiens, UniProt O75173); test: In vitro fluorescence screen for Aggrecanase-1 inhibitors; assay type: biochemical; settings: Table 3; for IC50: read-out: Agg1 IC50; for Ki: read-out: Ki Agg1
T1 sequence (O75173 213-837): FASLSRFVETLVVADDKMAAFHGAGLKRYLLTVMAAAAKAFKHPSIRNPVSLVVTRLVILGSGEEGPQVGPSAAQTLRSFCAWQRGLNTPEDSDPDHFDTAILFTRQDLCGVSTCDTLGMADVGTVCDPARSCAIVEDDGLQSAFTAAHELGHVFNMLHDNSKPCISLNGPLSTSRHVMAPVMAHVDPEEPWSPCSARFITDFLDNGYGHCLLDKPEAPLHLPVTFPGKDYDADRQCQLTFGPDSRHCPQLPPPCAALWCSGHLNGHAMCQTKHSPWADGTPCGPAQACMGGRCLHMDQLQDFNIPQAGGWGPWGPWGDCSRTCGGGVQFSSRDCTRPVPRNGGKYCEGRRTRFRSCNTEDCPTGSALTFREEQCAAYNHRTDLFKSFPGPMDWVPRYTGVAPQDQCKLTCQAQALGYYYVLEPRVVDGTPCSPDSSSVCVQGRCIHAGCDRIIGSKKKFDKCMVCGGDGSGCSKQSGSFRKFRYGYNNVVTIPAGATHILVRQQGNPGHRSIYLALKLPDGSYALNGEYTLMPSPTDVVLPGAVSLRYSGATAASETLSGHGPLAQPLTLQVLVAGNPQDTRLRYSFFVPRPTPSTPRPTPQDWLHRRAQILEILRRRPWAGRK

[2] = molecular target: T2, purified recombinant human Aggrecanase-2 (Ag2t-Phe628-Strep) (Homo sapiens, UniProt Q9UNA0); test: In vitro fluorescence screen for Aggrecanase-2 inhibitors; assay type: biochemical; settings: Table 3; for IC50: read-out: Agg 2 IC50; for Ki: read-out: Ki Agg2
T2 construct: the form used is denoted as Ag2t-Phe628-Strep (MW=41,737)
T2 sequence (Q9UNA0 262-628): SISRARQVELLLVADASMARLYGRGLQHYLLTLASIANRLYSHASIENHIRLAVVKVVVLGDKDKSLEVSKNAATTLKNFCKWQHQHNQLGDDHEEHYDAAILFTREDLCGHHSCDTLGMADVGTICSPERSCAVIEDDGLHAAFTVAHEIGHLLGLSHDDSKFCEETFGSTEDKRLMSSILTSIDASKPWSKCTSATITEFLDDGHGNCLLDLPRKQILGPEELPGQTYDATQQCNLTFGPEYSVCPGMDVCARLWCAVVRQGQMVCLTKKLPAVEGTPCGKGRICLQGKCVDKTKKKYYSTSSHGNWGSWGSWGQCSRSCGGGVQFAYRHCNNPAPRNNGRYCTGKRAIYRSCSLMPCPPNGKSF

MMP-8 = MMP-8 (Homo sapiens, UniProt P22894); test: MMP-8 of Table 3; assay type: biochemical; settings: unit inferred
MMP-8, sequence (P22894 101-467, species assumed): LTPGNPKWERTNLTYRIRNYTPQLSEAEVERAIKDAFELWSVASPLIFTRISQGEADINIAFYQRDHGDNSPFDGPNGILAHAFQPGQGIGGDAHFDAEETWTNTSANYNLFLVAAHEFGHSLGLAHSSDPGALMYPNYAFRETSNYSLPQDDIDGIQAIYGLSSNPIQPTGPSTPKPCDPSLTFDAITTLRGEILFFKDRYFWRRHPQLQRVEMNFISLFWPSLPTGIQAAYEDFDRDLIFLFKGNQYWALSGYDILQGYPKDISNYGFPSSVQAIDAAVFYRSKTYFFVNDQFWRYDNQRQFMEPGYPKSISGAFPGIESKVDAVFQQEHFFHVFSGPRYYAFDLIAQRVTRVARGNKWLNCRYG

MMP-12 = MMP-12 (Homo sapiens, UniProt P39900); test: MMP-12 of Table 3; assay type: biochemical; settings: unit inferred
MMP-12, sequence (P39900 106-470): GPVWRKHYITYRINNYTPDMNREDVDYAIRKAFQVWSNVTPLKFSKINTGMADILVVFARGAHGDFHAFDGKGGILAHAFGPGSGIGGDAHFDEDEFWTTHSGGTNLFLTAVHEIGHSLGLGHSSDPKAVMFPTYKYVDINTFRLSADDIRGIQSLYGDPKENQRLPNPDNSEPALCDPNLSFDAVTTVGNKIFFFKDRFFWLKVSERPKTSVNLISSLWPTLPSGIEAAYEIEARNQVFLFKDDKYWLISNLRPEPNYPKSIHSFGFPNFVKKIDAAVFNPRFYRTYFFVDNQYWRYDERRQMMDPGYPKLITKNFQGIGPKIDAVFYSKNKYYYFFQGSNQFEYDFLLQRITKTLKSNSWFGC

[3] = test system: Aggrecanase-mediated aggrecan cleavage in human OA cartilage explants; test: Human osteoarthritic cartilage explant efficacy study (BC3 western analysis); assay type: cell-based; settings: for EC50: 144 h, read-out: EC50 (inhibition of aggrecanase generated aggrecan fragments)
Source text: Human OA Cartilage Explant Culture: Discarded tissues from consented knee replacement patients were obtained from New England Baptist Hospital (Brookline, Mass.) in sterile phosphate buffered saline (PBS) after about 2-4 hrs post surgery. Cartilage slices were harvested from the knee specimens and washed several times in PBS. These cartilage slices were cut into appropriate pieces (6-8 mm) and rinsed in PBS and then in media and further cultured for additional days as cartilage explants. The medium consisted of Dulbecco's Modified Eagle's medium (DMEM, JRH Biosciences, Lenexa, Kans.), 50 μg/ml ascorbic acid (Wako, Osaka, Japan), 10 mM HEPES, pH 7.0 (Mediatech, Herndon, Va.), 2 mM L-glutamine (Mediatech), 100 U/ml antibiotic-antimycotic solution (Mediatech).
Test compounds: The test compounds are described in Examples 8OO, 8NNNNNNN, and 8WWWWWWW. Stock solutions of the compounds were prepared at 1 mg/ml in DMSO, aliquoted and stored at −20° C. Working solutions of the compounds were made in DMSO and added to the culture for efficacy studies.
Efficacy study: Cartilage explants were cultured for 2-3 days in DMEM medium in a 37° C. and 5% CO2 environment to equilibrate the tissue. Explants were weighed (˜250 mg) and placed in wells of a 24-well culture dish in 1 ml of medium and 3 replicates per treatment group. For the efficacy study, cartilage explants were cultured for 6 days in the presence or absence of various concentrations of the test compound. The media was replaced on day 3 and the experiment was terminated on day 6. Total aggrecan content of conditioned media was measured by a colorimetric assay with DMMB (Farndale, R W et al., Biochim Biophys Acta. 1986, 883, 173-177).
Western analysis: Aggrecan fragments in conditioned medium were analyzed by western analysis using neoepitope antibody, BC-3 designed to recognize the Aggrecanase-generated N-terminal interglobular neoepitope ^374ARGS. Equal cartilage weight equivalent conditioned media from each replicate well per treatment group was pooled and digested with Chondroitinase ABC (Sigma, St Louis, Mo.), Keratinase I (Seikagaku America, Falmouth, Mass.) and Keratinase II (Seikagaku America, Falmouth, Mass.) for 2 h at 37° C. Samples were concentrated by YM-10 centrifugal filter device (Millipore Corp., Bedford, Mass.), lyophilized and reconstituted with equal volume of water. Samples were separated under reducing conditions on 4-12% gradient Tris-glycine gels (Invitrogen, Carlsbad, Calif.). Proteins from the gels were transferred to nitrocellulose membranes. Immunoblots were probed using Mab BC-3 (Abcam, Cambridge, Mass.). Incubation with primary and alkaline-phosphatase-conjugated secondary goat anti-mouse IgG (Promega Corp., Madison, Wis.) was performed overnight at 4° C. and at room temperature for 1 h, respectively. The immunoblots were incubated with NBT/BCIP substrate (Promega Corp., Madison, Wis.) at room temperature to achieve optimum color development. The aggrecan fragments containing the ARGS neoepitope were quantitated by densitometry analysis and the percentage inhibition of aggrecan degradation by test compounds was determined.

recombinant human MMP-2 = molecular target: T3, recombinant human MMP-2 (Homo sapiens, UniProt P08253); test: In vitro fluorescence assay of MMP-2 activity
T3 sequence (P08253 110-660): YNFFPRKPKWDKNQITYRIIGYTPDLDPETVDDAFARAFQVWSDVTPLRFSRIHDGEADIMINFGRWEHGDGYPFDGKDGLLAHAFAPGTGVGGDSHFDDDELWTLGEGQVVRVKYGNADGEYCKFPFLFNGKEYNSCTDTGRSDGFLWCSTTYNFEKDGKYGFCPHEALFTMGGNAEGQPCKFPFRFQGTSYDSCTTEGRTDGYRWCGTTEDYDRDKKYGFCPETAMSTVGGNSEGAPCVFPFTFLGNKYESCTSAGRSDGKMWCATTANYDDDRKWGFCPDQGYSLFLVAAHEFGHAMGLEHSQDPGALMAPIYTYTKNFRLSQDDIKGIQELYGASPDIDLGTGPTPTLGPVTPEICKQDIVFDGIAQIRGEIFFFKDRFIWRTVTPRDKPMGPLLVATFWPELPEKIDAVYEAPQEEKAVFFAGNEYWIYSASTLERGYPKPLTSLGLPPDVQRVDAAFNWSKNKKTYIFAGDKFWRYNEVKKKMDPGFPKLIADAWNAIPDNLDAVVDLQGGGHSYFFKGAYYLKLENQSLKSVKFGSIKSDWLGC

[4] = Homo sapiens, read-out: % inhibition (BC3 analysis)

IC50 [1]: < 0.03 µM
Ki [1]: < 0.003 µM
IC50 [2]: < 0.03 µM
Ki [2]: 0.037 µM
IC50 (MMP-8): 1.21 µM
IC50 (MMP-12): 0.68 µM
IC50 (recombinant human MMP-2): 2.15 µM
Compound: CC(C)(Cc1ccc(F)cc1)NC(=O)[C@H](CCC(=O)O)NC(=O)c1ccc(-c2cccs2)cc1 [Example 8NNNNNNN, N-[2-(4-fluorophenyl)-1,1-dimethylethyl]-N^2-[4-(2-thienyl)benzoyl]-L-α-glutamine]
EC50 ([3]; human OA cartilage explants, 6 days, BC3 analysis): < 0.04 mg/L
inhibition at 0.04 µg/mL ([3]; Homo sapiens, 0.04 ug/ml, average of 4 donors, read-out: % inhibition (BC3 analysis)): 70.2%
inhibition at 0.08 µg/mL ([3]; Homo sapiens, 0.08 ug/ml, average of 4 donors, read-out: % inhibition (BC3 analysis)): 84.5%
inhibition at 0.15 µg/mL ([3]; Homo sapiens, 0.15 ug/ml, average of 4 donors, read-out: % inhibition (BC3 analysis)): 66.7%
inhibition at 0.3 µg/mL ([3]; Homo sapiens, 0.3 ug/ml, average of 4 donors, read-out: % inhibition (BC3 analysis)): 73.1%
inhibition at 0.6 µg/mL ([3]; Homo sapiens, 0.6 ug/ml, average of 4 donors, read-out: % inhibition (BC3 analysis)): 98.9%
inhibition at 1.25 µg/mL ([3]; Homo sapiens, 1.25 ug/ml, average of 4 donors, read-out: % inhibition (BC3 analysis)): 99.4%
inhibition at 2.5 µg/mL ([3]; Homo sapiens, 2.5 ug/ml, average of 4 donors): 98.7%
inhibition at 5 µg/mL ([3]; Homo sapiens, 5 ug/ml, average of 4 donors): 100%
inhibition at 10 µg/mL ([3]; Homo sapiens, 10 ug/ml, average of 4 donors): 101%

Compound: CC(C)(Cc1ccc(F)cc1)NC(=O)[C@H](CCC(=O)O)NC(=O)c1ccc(-c2ccc(Cl)s2)cc1 [Example 8WWWWWWW, N^2-[4-(5-chloro-2-thienyl)benzoyl]-N-[2-(4-fluorophenyl)-1,1-dimethylethyl]-L-α-glutamine]
IC50 [1]: < 0.03 µM
Ki [1]: < 0.003 µM
IC50 [2]: 0.05 µM
Ki [2]: 0.042 µM
IC50 (MMP-8): 0.37 µM
IC50 (MMP-12): 0.63 µM
EC50 ([3]; Homo sapiens): 0.04 to 0.16 mg/L (≈ 0.0774 to 0.309 µM)
inhibition at 0.01 µg/mL [3, 4]: 2.85%
inhibition at 0.02 µg/mL [3, 4]: 46.4%
inhibition at 0.04 µg/mL [3, 4]: 23.5%
inhibition at 0.08 µg/mL [3, 4]: 76.9%
inhibition at 0.15 µg/mL [3, 4]: 88.5%
inhibition at 0.3 µg/mL [3, 4]: 95%
inhibition at 0.6 µg/mL [3, 4]: 98%
inhibition at 1.25 µg/mL [3, 4]: 100%
IC50 (recombinant human MMP-2): 1.08 µM
